Source: patent publication US8138168B1 (Takeda Pharmaceutical Company Limited, priority 2007, dated 2012)

Target: T1, Recombinant human renin (Homo sapiens, UniProt P00797)
T1 construct: isolate the active form (residues 67-406); made in house; host or cells: FreeStyle 293-F cells (transient expression of pcDNA3.1(+)/hREN)
T1 sequence (P00797 67-406): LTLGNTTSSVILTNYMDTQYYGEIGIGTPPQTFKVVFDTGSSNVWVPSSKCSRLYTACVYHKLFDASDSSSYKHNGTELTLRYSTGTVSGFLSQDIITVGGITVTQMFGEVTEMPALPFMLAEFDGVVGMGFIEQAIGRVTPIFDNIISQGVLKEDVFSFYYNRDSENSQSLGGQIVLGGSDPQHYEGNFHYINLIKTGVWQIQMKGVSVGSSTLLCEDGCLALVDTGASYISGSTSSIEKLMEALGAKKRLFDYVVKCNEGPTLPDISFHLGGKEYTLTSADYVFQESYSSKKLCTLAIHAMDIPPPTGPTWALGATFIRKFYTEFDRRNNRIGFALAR
Assay: In vitro enzymatic activity assay of renin inhibitors (fluorogenic peptide substrate)
Format: biochemical
Settings: read-out: IC50 of Exemplified Compounds Against Renin
In short: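 Recombinant human renin (3 nM final) pre-incubated 10 min at 37 °C with compounds in pH 7.4 Hepes/EDTA/DTT/0.1 mg/mL BSA/Brij35 buffer (optionally plus 2% BSA), 5% DMSO final; fluorogenic QXL520/HiLyteFluo488 peptide substrate added.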

Row | Structure (SMILES) | IC50 [nM]
1 | COCCCn1c([C@@H]2CCCN(C(=O)[C@@H]3CN(C(=O)c4cccc(C(=O)OC)c4)C[C@H]3N)C2)nc2ccccc21 [Compound 377, methyl 3-((3S,4R)-3-amino-4-((R)-3-(1-(3-methoxypropyl)-1H-benzo[d]imidazol-2-yl)piperidine-1-carbonyl)pyrrolidine-1-carbonyl)benzoate] | 100 to 1000
2 | COCCCn1c([C@@H]2CCCN(C(=O)[C@@H]3CN(S(=O)(=O)c4c(Cl)cc(Cl)cc4Cl)C[C@H]3N)C2)nc2ccccc21 [Compound 340, ((3R,4S)-4-amino-1-(2,4,6-trichlorophenylsulfonyl)pyrrolidin-3-yl)((R)-3-(1(3-methoxypropyl)-1H-benzo[d]imidazol-2-yl)piperidin-1-yl)methanone] | 100 to 1000
3 | COCCCn1c([C@@H]2CCCN(C(=O)C[C@H](N)Cc3ccc(N4CCC(C(=O)OC)CC4)cc3)C2)nc2ccccc21 [Compound 237, methyl 1-(4-((R)-2-amino-4-((R)-3-(1-(3-methoxypropyl)-1H-benzo[d]imidazol-2-yl)ppiperidin-1-yl)-4-oxobutyl)phenyl)piperidine-4-carboxylate] | 100 to 1000
4 | COCCCn1c([C@@H]2CCCN(C(=O)[C@@H]3CN(S(=O)(=O)c4cc(OC)ccc4OC)C[C@H]3N)C2)nc2ccccc21 [Compound 413, ((3R,4S)-4-amino-1-(2,5-dimethoxyphenylsulfonyl)pyrrolidin-3-yl)((R)-3-(1-(3-methoxypropyl)-1H-benzo[d]imidazol-2-yl)piperidin-1-yl)methanone] | > 1000
5 | COCCCn1c([C@@H]2CCCN(C(=O)C[C@H](N)Cc3ccc4ccccc4c3)C2)nc2ccccc21 [Compound 74, (R)-3-amino-1((R)-3-(1-(3-methoxypropyl)-1H-benzo[d]imidazol-2-yl)piperidin-1-yl)-4-(naphthalen-2-yl)butan-1-one] | < 100
6 | COCCCn1c([C@@H]2CCCN(C(=O)C[C@H](N)CNC(=O)c3ccc(-c4ccc(F)cc4)o3)C2)nc2ccccc21 [Compound 304, N-((S)-2-amino-4-((R)-3-(1-(3-methoxypropyl)-1H-benzo[d]imidazol-2-yl)piperidin-1-yl)-4-oxobutyl)-5-(4-fluorophenyl)furan-2-carboxamide] | 100 to 1000

Now from value to compound:

Row | IC50 [nM] | Structure (SMILES)
7 | < 100 | COCCCn1c([C@@H]2CCCN(C(=O)C[C@H](N)Cc3ccc(Oc4ccccc4)cc3)C2)nc2ccccc21 [Compound 238, (R)-3-amino-1((R)-3-(1-(3-methoxypropyl)-1H-benzo[d]imidazol-2-yl)piperidin-1-yl)-4-(4-phenoxyphenyl)butan-1-one]
8 | < 100 | CCOc1nc(-c2ccc(C[C@@H](N)CC(=O)N3CCC[C@@H](c4nc5ccccc5n4CCCOC)C3)cc2)cs1 [Compound 200, (R)-3-amino-4-(4-(2-ethoxythiazol-4-yl)phenyl)-1-((R)-3-(1-(3-methoxypropyl)-1H-benzo[d]imidazol-2-yl)piperidin-1-yl)butan-1-one]
9 | < 100 | COCCCn1c([C@@H]2CCCN(C(=O)C[C@H](N)Cc3ccc(-c4ccc(NC(=O)C(C)(C)O)cc4)cc3)C2)nc2ccccc21 [Compound 199, N-(4′-((R)-2-amino-4-((R)-3-(1-(3-methoxypropyl)-1H-benzo[d]imidazol-2-yl)piperidin-1-yl)-4-oxobutyl)biphenyl-4-yl)-2-hydroxy-2-methylpropanamide]
10 | < 100 | COCCCn1c([C@@H]2CCCN(C(=O)C[C@H](N)Cc3ccc(-c4ccc5c(c4)CCO5)cc3)C2)nc2c(C)cccc21 [Compound 493, (R)-3-amino-4-(4-(2,3-dihydrobenzofuran-5-yl)phenyl)-l-((R)-3-(1-(3-methoxypropyl)-4-methyl-1H-benzo[d]imidazol-2-yl)piperidin-1-yl)butan-1-one]
11 | < 100 | COCCCn1c([C@@H]2CCCN(C(=O)C[C@H](N)Cc3ccc(-c4ccc(C(=O)NCC(O)CO)cc4)cc3)C2)nc2ccccc21 (stereo partly drawn) [Compound 181, 4′-((R)-2-amino-4-((R)-3-(1-(3-methoxypropyl)-1H-benzo[d]imidazol-2-yl)piperidin-1-yl)-4-oxobutyl)-N-(2,3-dihydroxypropyl)biphenyl-4-carboxamide]
